In US7507727B2, “Substituted quinobenzoxazine analogs and methods of using thereof” (Cylene Pharmaceuticals, Inc., priority 2003, dated 2009) one finds IC50 data, which are given here for 17 compounds.

Structures are written as SMILES.

The subject of one test is HeLa cells. The test is described as follows: MTS cell proliferation and/or cytotoxicity assay. The note with it: Homo sapiens, HeLa, 72 h, concentration at which 50% of antiproliferative cell response is seen; 3 days incubation; read-out: MTS Data Hella. Type of test: cell-based, Human. As for the experimental part: Cell culture. Human cervical epithelial cells (HeLa cells) were obtained from American Type Culture Collection (Manassas, Va.). Cells were grown in Eagle's minimum essential medium (MEM, Hyclone, Utah) supplemented with 2 mM Glutamine, 0.1 mM nonessential amino acid, 1 mM Na Pyruvate, 1.5 g/L NaHCO3, 50 mg/L gentamicin, and 10% fetal bovine serum (Hyclone, USA) in a humidified atmosphere of 5% CO2 at 37° C.
MTS assays. Antiproliferative effects of the compounds were tested by the CellTiter 96 AQueous assay (Promega, WI), which is a calorimetric assay for determining the number of viable cells. (See, e.g., Wang, L., et al., Methods Cell Sci (1996) 18:249-255). In one example, cells (4,500 cells/well) were seeded on 96 well flat bottom plates (Corning, N.Y.) in 100 μl of culture medium without any anticancer drug on day 0, and the culture medium was exchanged for that //contained anticancer drugs at various concentrations on day 1. After incubation for 3 days under normal growth conditions (on day 4), the monolayers were washed once in PBS, and the medium was switched to 100 μl of PBS in each of the 96 well plate. After mixing MTS and PMS at the ratio of 20:1, 20 μl of MTS/PMS solution was added to each of the 96 well plate and incubated for 4 hours in a humidified atmosphere of 5% CO2 at 37° C. The absorbance was read at 490 nm using FLUOstar Galaxy 96 well plate reader (BMG Labtechnologies, Germany). μM concentrations (MTS data) reported in Table 1 are concentrations at which 50% of antiproliferative cell response is seen.
Take `CN(C)CCCCNC(=O)c1cn2c3cc4c(cc3oc3c(N5CC[C@H](NC(=O)OC(C)(C)C)C5)c(F)cc(c1=O)c32)c(=O)c1ccccc14` [compound 480]: the IC50 came out at 3700 nM.
For the compound `CN1CCCC1CCNc1c(F)cc2c(=O)c(C(=O)NCCCN3CCOCC3)cn3c4cc5c(cc4oc1c23)c(=O)c1ccccc15` (stereo not shown) [compound 523], the IC50 was 1600 nM.
With `CN(C)CCCCNC(=O)c1cn2c3cc4c(cc3oc3c(N5CC[C@H](N)C5)c(F)cc(c1=O)c32)c(=O)c1ccccc14` [compound 580], the IC50 was 300 nM.
`CN1CCCC1CCNC(=O)c1cn2c3c(c(N4CC[C@H](N)C4)c(F)cc3c1=O)Oc1cc3ccccc3cc1-2` (stereo partly shown) [compound 474]: the IC50 was determined as 370 nM.
With `O=C(NCCCN1CCOCC1)c1cn2c3cc4c(cc3oc3c(NCCN5CCCC5)c(F)cc(c1=O)c32)c(=O)c1ccccc14` [compound 502], the IC50 came out at 4000 nM.
With `O=C(NCCN1CCCC1)c1cn2c3c(c(N4CCC(c5cnccn5)C4)ccc3c1=O)Oc1ccccc1-2` (stereo not shown) [compound 30], the IC50 was 1800 nM.
As for `CN1CCN(CCCNC(=O)c2cn3c4cc5c(cc4oc4c(N6CC[C@H](N)C6)c(F)cc(c2=O)c43)c(=O)c2ccccc25)CC1` [compound 520], the IC50 is 1900 nM.
Consider `CN(C)CCCCNc1c(F)cc2c(=O)c(C(=O)NCCCN3CCOCC3)cn3c4cc5c(cc4oc1c23)c(=O)c1ccccc15` [compound 522], for which the IC50 turned out to be 1700 nM.
Take `O=C(CCN1CCCCC1)N[C@@H]1CCN(c2c(F)cc3c(=O)c(C(=O)NCCN4CCCC4)cn4c3c2Oc2cc3c(cc2-4)oc2ccccc23)C1` [compound 308]: the IC50 came out at 3100 nM.
`CN(C)CCCCNC(=O)c1cn2c3c(c(N4CC[C@@H](NC(=O)CCNCCCn5ccnc5)C4)c(F)cc3c1=O)Oc1cc3c(cc1-2)oc1ccccc13` [compound 500]: the IC50 was found to be 5600 nM.
Same read-out and setting: next, `O=C(N[C@H]1C(O)O[C@H](CO)[C@H](O)[C@@H]1O)c1cn2c3c(c(NCCCN4CCOCC4)c(F)cc3c1=O)Oc1cc3c(cc1-2)oc1ccccc13` (stereo partly shown) [compound 37]: 2800 nM; `CN1CCN(CCCNC(=O)c2cn3c4cc5c(cc4oc4c(NCCN6CCCC6)c(F)cc(c2=O)c43)c(=O)c2ccccc25)CC1` [compound 524]: 1500 nM; `NC1CCN(c2c(F)cc3c(=O)c(C(=O)NCCc4cnc[nH]4)cn4c3c2Oc2cc3ccccc3cc2-4)C1` (stereo not shown) [compound 379]: 1900 nM.
For `CN1CCCC1CCNC(=O)c1cn2c3c(c(N4CCC(NC(=O)OC(C)(C)C)C4)c(F)cc3c1=O)Oc1cc3c(cc1-2)oc1ccccc13` (stereo not shown) [compound 389], the IC50 is 290 nM.
`CN(C)CC(C)(C)CNC(=O)c1cn2c3c(c(N4CC5CCCNC5C4)c(F)cc3c1=O)Oc1cc3ccccc3cc1-2` (stereo not shown) [compound 493]: the IC50 was determined as 400 nM.
As to `NC1CCN(c2c(F)cc3c(=O)c(C(=O)O)cn4c5cc6c(=O)c7ccccc7c(=O)c6cc5oc2c34)C1` (stereo not shown) [compound 25], the IC50 was determined as 200 nM.
Take `CN1CCCC1CCNC(=O)c1cn2c3cc4c(cc3oc3c(NCCC5CCCN5C)c(F)cc(c1=O)c32)c(=O)c1ccccc14` (stereo not shown) [compound 514]: the IC50 stood at 2900 nM.

The target of the next test is c-Myc template DNA (c-myc quadruplex). The test is described as follows: Quadruplex binding / stop assay (Taq polymerase arrest, capillary electrophoresis). The note with it: read-out: Stop Data c-Myc μM; concentration at which 50% of the DNA was arrested (arrested:full-length 1:1).
As to `CN(C)CCCCNC(=O)c1cn2c3cc4c(cc3oc3c(N5CC[C@H](NC(=O)OC(C)(C)C)C5)c(F)cc(c1=O)c32)c(=O)c1ccccc14` [compound 480], the IC50 was 0.5 µM.
On to `CN1CCCC1CCNc1c(F)cc2c(=O)c(C(=O)NCCCN3CCOCC3)cn3c4cc5c(cc4oc1c23)c(=O)c1ccccc15` (stereo not shown) [compound 523], for which the IC50 is 0.375 µM.
In the case of `CN(C)CCCCNC(=O)c1cn2c3cc4c(cc3oc3c(N5CC[C@H](N)C5)c(F)cc(c1=O)c32)c(=O)c1ccccc14` [compound 580], the IC50 stood at 0.18 µM.
Same read-out and setting: then `CN1CCCC1CCNC(=O)c1cn2c3c(c(N4CC[C@H](N)C4)c(F)cc3c1=O)Oc1cc3ccccc3cc1-2` (stereo partly shown) [compound 474], with 0.58 µM; and `O=C(NCCCN1CCOCC1)c1cn2c3cc4c(cc3oc3c(NCCN5CCCC5)c(F)cc(c1=O)c32)c(=O)c1ccccc14` [compound 502], with 0.375 µM; and `O=C(NCCN1CCCC1)c1cn2c3c(c(N4CCC(c5cnccn5)C4)ccc3c1=O)Oc1ccccc1-2` (stereo not shown) [compound 30], with 3 µM.
Regarding `CN1CCN(CCCNC(=O)c2cn3c4cc5c(cc4oc4c(N6CC[C@H](N)C6)c(F)cc(c2=O)c43)c(=O)c2ccccc25)CC1` [compound 520], the IC50 was found to be 0.375 µM.
The same measure, in the same setting: next, `CN(C)CCCCNc1c(F)cc2c(=O)c(C(=O)NCCCN3CCOCC3)cn3c4cc5c(cc4oc1c23)c(=O)c1ccccc15` [compound 522]: 0.375 µM; `O=C(CCN1CCCCC1)N[C@@H]1CCN(c2c(F)cc3c(=O)c(C(=O)NCCN4CCCC4)cn4c3c2Oc2cc3c(cc2-4)oc2ccccc23)C1` [compound 308]: 1 µM.
With `CN(C)CCCCNC(=O)c1cn2c3c(c(N4CC[C@@H](NC(=O)CCNCCCn5ccnc5)C4)c(F)cc3c1=O)Oc1cc3c(cc1-2)oc1ccccc13` [compound 500], the IC50 is 0.375 µM.
Regarding `O=C(N[C@H]1C(O)O[C@H](CO)[C@H](O)[C@@H]1O)c1cn2c3c(c(NCCCN4CCOCC4)c(F)cc3c1=O)Oc1cc3c(cc1-2)oc1ccccc13` (stereo partly shown) [compound 37], the IC50 stood at 2.5 µM.
As to `CN1CCN(CCCNC(=O)c2cn3c4cc5c(cc4oc4c(NCCN6CCCC6)c(F)cc(c2=O)c43)c(=O)c2ccccc25)CC1` [compound 524], the IC50 was 0.375 µM.
Same read-out and setting: next, `NC1CCN(c2c(F)cc3c(=O)c(C(=O)NCCc4cnc[nH]4)cn4c3c2Oc2cc3ccccc3cc2-4)C1` (stereo not shown) [compound 379]: 0.75 µM; `CN1CCCC1CCNC(=O)c1cn2c3c(c(N4CCC(NC(=O)OC(C)(C)C)C4)c(F)cc3c1=O)Oc1cc3c(cc1-2)oc1ccccc13` (stereo not shown) [compound 389]: 0.75 µM.
As for `CN(C)CC(C)(C)CNC(=O)c1cn2c3c(c(N4CC5CCCNC5C4)c(F)cc3c1=O)Oc1cc3ccccc3cc1-2` (stereo not shown) [compound 493], the IC50 was found to be 0.44 µM.
For the compound `NC1CCN(c2c(F)cc3c(=O)c(C(=O)O)cn4c5cc6c(=O)c7ccccc7c(=O)c6cc5oc2c34)C1` (stereo not shown) [compound 25], the IC50 is 0.25 µM.
Still for that read-out and setting: next, `CN1CCCC1CCNC(=O)c1cn2c3cc4c(cc3oc3c(NCCC5CCCN5C)c(F)cc(c1=O)c32)c(=O)c1ccccc14` (stereo not shown) [compound 514]: 0.375 µM.
